In general, EC50 refers to the midpoint of the concentration-response curve.

Structures are written as SMILES. Where a name gives a salt, the structure may show the parent alone.

The target in one test is T1, human TGR5 (Homo sapiens, UniProt Q8TDU6).
T1 construct: expressed in transfected cells; host or cells: HEK-293 cells, stably transfected (pcDNA 3.1, Fugene6, geneticin selection)
T1 sequence (Q8TDU6 1-330): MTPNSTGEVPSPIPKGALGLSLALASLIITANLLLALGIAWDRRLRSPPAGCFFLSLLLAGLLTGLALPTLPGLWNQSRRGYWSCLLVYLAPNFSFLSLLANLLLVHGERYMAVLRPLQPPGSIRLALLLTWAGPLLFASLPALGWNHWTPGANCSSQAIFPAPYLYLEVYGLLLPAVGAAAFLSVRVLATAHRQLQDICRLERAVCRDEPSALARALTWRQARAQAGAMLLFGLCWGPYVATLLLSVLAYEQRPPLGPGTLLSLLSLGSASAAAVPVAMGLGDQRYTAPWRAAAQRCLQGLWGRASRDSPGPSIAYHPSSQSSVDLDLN
Description: cAMP production assay in HEK293-TGR5 cells. The format is cell-based. Particulars: HEK293 cells stably expressing human TGR5; 30 minutes stimulation; LANCE cAMP TR-FRET; read-out: cAMP Production in 293-TGR5 Cells EC50.

The test system of test [1] is mice fed high fat diet (HFD). Particulars: mice fed HFD containing 0.5% cholic acid vs HFD alone; cited from earlier work.

On to `CCOC(=O)c1ccc2cc(CNCCc3ccc(Br)cc3)c(-c3ccsc3)nc2c1` [Example 137, Ethyl 3-((4-bromophenethylamino)methyl)-2-(thiophen-3-yl)quinoline-7-carboxylate], for which, at human TGR5, the EC50 is above 10 µM.
For the compound `NC(=O)c1ccc2cc(CNCCc3ccc(Br)cc3)c(-c3ccsc3)nc2c1` [Example 139, 3-((4-Bromophenethylamino)methyl)-2-(thiophen-3-yl)quinoline-7-carboxamide], the EC50 at human TGR5 is below 10 µM.
With `CNC(=O)c1ccc2cc(CNCCc3ccc(Br)cc3)c(-c3ccsc3)nc2c1` [Example 140, 3-((4-Bromophenethylamino)methyl)-N-methyl-2-(thiophen-3-yl)quinoline-7-carboxamide], the EC50 at human TGR5 is below 10 µM.
Take `OCc1ccc2cc(CNCCc3ccc(Br)cc3)c(-c3ccsc3)nc2c1` [Example 141, (3-((4-Bromophenethylamino)methyl)-2-(thiophen-3-yl)quinolin-7-yl)methanol]: on human TGR5, the EC50 was below 10 µM.
As to `CC(=O)Nc1ccc2cc(CNCCc3ccc(Br)cc3)c(-c3ccsc3)nc2c1` [Example 142, N-(3-((4-bromophenethylamino)methyl)-2-(thiophen-3-yl)quinolin-7-yl)acetamide], at human TGR5, the EC50 is above 10 µM.
In the case of `COc1ccc2cc(CNC(C)Cc3ccc(Br)cc3)c(-c3ccsc3)nc2c1` (stereo not drawn) [Example 145, 1-(4-Bromophenyl)-N-((7-methoxy-2-(thiophen-3-yl)quinolin-3-yl)methyl)propan-2-amine], the EC50 on human TGR5 was above 10 µM.
For the compound `COc1cc2nc(-c3ccsc3)c(CNCCc3ccc(Br)cc3)cc2cc1F` [Example 146, 2-(4-Bromophenyl)-N-((6-fluoro-7-methoxy-2-(thiophen-3-yl)quinolin-3-yl)methyl)-ethanamine], the EC50 on human TGR5 was below 10 µM.
For the compound `Oc1cc2nc(-c3ccsc3)c(CNCCc3ccc(Br)cc3)cc2cc1F` [Example 147, 3-((4-Bromophenethylamino)methyl)-6-fluoro-2-(thiophen-3-yl)quinolin-7-ol], the EC50 at human TGR5 was above 10 µM.
For `COc1ccc2cc(CNCCc3ccc(Br)cc3)c(OC)nc2c1` [Example 148, 2-(4-Bromophenyl)-N-((2,7-dimethoxyquinolin-3-yl)methyl)ethanamine], the EC50 at human TGR5 was above 10 µM.
On to `COc1ccc2cc(CNCCc3ccc(Br)cc3)c(O)nc2c1` [Example 149, 3-((4-Bromophenethylamino)methyl)-7-methoxyquinolin-2(1H)-one hydrochloride], for which the EC50 on human TGR5 is above 10 µM.
As for `C[C@H](CCC(=O)O)[C@H]1CC[C@H]2[C@@H]3[C@H](O)C[C@@H]4C[C@H](O)CC[C@]4(C)[C@H]3C[C@H](O)[C@]12C` [cholic acid], in test [1], the Food intake result is recorded as “no difference between the two groups” and the Weight gain result is “gained less weight than control mice on HFD alone”.

Source of the values: patent publication US20080221161A1, “HETEROCYCLIC MODULATORS OF TGR5 FOR TREATMENT OF DISEASE” (KALYPSYS, INC., priority 2007, published 2008).
